In US7763619B2, “Compounds with 5-HT1A activity useful for treating disorders of the outer retina” (Alcon, Inc., priority 2000, dated 2010):
Counter-ions that a name gives are not always drawn.

Columns and labels:
Format in all cases: in vivo
[1] = tested on: photo-oxidative induced retinopathy; assay: Rat photo-oxidative induced retinopathy model: retinal morphology
Experimental: (§1) Neuroprotective Effects in the Rat Photo-Oxidative Induced Retinopathy Model
(§2) Induction of Photochemical Lesion. Photochemical lesions were induced in dark adapted rats (24 hour) by exposure to (220 fc) blue light (half-amplitude bandpass=435-475 nm) for 6 hours. Animals were allowed to recover for 5 days in darkness prior to electrodiagnostic evaluation of retinal function. Rats were single housed in clear polycarbonate cages during this light exposure.
Assessment of Retinal Morphology. Ocular tissues were obtained from control and drug or vehicle dosed rats and fixed by immersion into a mixture of 2% paraformaldehyde and 2% glutaraldehyde. Fixed eyeballs were dehydrated in an ascending ethanol series, embedded in JB-4 plastic resin, and 1 to 1.5-micron thick sections were analyzed using a quantitative computer image analysis system attached to the microscope. Retinal layer thickness (retinal pigment epithelium, RPE; outer nuclear layer thickness, ONL; inner nuclear layer thickness, INL; and length of photoreceptor inner and outer segments, IS+OS) was measured.
(§3) Subjects and Dosing. Male Sprague Dawley rats were randomly assigned to drug and vehicle experimental groups. Control rats were housed in their home cage under normal cyclic light exposure. All rats were dosed 48, 24 and 0 hours prior to a 6-hour blue-light exposure. Dosing was as follows:
(§4) Five rats were used as controls. Retinal protection was assessed by analyzing the ERG response and measuring changes in retinal morphology.
2.) Buspirone: For DNA quantitation, six rats per treatment group were dosed IP with vehicle or buspirone (0.5 and 1 mg/kg) prior to light exposure. Retinas from seven normal rats were used as controls. To evaluate changes in retinal morphology, rats were dosed (IP) with either vehicle (N=8) or buspirone (1.0 mg/kg [N=9]). Six rats were used as controls. Retinal protection was assessed by quantitating changes in retinal DNA and measuring changes in retinal morphology.

[2] = tested on: photo-oxidative induced retinopathy; assay: Rat photo-oxidative induced retinopathy model: electroretinogram (ERG)
[3] = tested on: photo-oxidative induced retinopathy; assay: as above; remark: listed apart in the source
Experimental: as §1
The retinal protective effect of these 5-HT1A agonists were evaluated in our photo-oxidative induced retinopathy paradigm.
as §2
Electrodiagnostic Evaluation. The electroretinogram (ERG) was recorded from anesthetized rats after a 24-hour dark-adaptation period. Rats were anesthetized by IP injection with Ketamine-HCl (75 mg/Kg) and Xylazine (6 mg/Kg). Flash ERGs recorded from a platinum-iridium wire loop electrode positioned on the cornea were elicited by viewing a ganzfeld. Electrical responses to a series of light flashes increasing in intensity were digitized to analyze temporal characteristics of the waveform and response voltage-log intensity (VlogI) relationship. Changes in the ERG a-wave are associated with photoreceptor and retinal pigment epithelium damage while damage to the inner retina is reflected in changes in the ERG b-wave.
as §3, §4
3.) SR-57746A: Rats were dosed (IP) with vehicle (N=15) or SR-57746A (0.5 mg/kg [N=5] or 1 mg/kg [N=15]). Eleven rats were used as controls. The ERG was analyzed after a 5-day recovery period to assess retinal protection.

[4] = tested on: photo-oxidative induced retinopathy; assay: Rat photo-oxidative induced retinopathy model: retinal DNA quantitation
Experimental: as §1, §2
Assessment of DNA Changes. Albino rats were euthanized by CO2 inhalation and individual retinas were frozen in separate tubes. Each retina had been sonicated in 0.8 ml (2.0 M NaCl, 50 mM NaPO4, pH 7.4, 2 mM EDTA) to yield a uniform homogenate, and stored frozen. Aliquots (0.1 ml) of each sample were diluted 10-fold with 2.0 M NaCl, 50 mM NaPO4. pH 7.4, 2 mM EDTA containing 1.1 μg/ml bisbenzimidazole (Hoechst 33258). A standard curve was constructed using calf thymus DNA from 0 to 25 μg/ml in the same buffer. Triplicate 0.2 ml aliquots of each retina sample and standard were pipetted into a 96 well plate for fluorescence measurements in the Cytofluor II. […]
2.) Buspirone: For DNA quantitation, six rats per treatment group were dosed IP with vehicle or buspirone (0.5 and 1 mg/kg) prior to light exposure. […] Retinal protection was assessed by quantitating changes in retinal DNA and measuring changes in retinal morphology.

[5] = tested on: light-induced functional or morphological changes; assay: Light damage paradigms (comparison compound classes)
[6] = 0.5 mg/kg SC 48, 24 and 0 h before 6-h blue light, 5-day recovery
[7] = 1.0 mg/kg SC 48, 24 and 0 h before 6-h blue light, 5-day recovery

In the case of CCCN(CCC)C1CCc2cccc(O)c2C1 (stereo not shown) [8-OH-DPAT, 8-hydroxy-2-(di-n-propylamino)tetralin], the “Lesions versus vehicle dosed rats” value ([1]; 0.5 mg/kg SC, 3-week recovery) is reported as “not significantly different than lesions measured in vehicle dosed rats”, the ONL thickness reduction ([1]; 0.5 mg/kg SC, 3-week recovery) is reported as 53% and the “Photoreceptor segment length reduction” value ([1]; 0.5 mg/kg SC, 3-week recovery) is reported as 60%. The RPE thickness reduction ([1]; 0.5 mg/kg SC, 3-week recovery) was 34%, the “ONL thickness compared to vehicle dosed rats” value ([1]; 1.0 mg/kg SC, 3-week recovery) was 2.4 fold and the “Photic lesions versus vehicle dosed rats” value ([1]; 1.0 mg/kg SC, 3-week recovery) was “significantly different from vehicle dosed rats”. The “Photoreceptor segment length compared to vehicle dosed rats” value ([1]; 1.0 mg/kg SC, 3-week recovery) was 2.9 times, the “RPE thickness compared to vehicle dosed rats” value ([1]; 1.0 mg/kg SC, 3-week recovery) was 1.9 times and the “Maximum a- and b-wave response amplitudes versus vehicle dosed rats” value [2, 6] was “not different than vehicle dosed rats”. For the same compound, the “Maximum a- and b-wave response amplitudes, % of control amplitudes” value [2, 6] was “approximately 27%”, the ERG reduction ([2]; 0.5 mg/kg SC, as restated with the morphometry) was “approximately 63%” and the “Maximum a- and b-wave response amplitudes versus vehicle dosed rats” value [2, 7] was “significantly higher than responses measured in vehicle dosed rats”. For the same compound, the “Maximum a-wave response amplitude, % of normal” value [2, 7] was “approximately 53%”, the “Maximum b-wave response amplitude, % of normal” value [2, 7] was ~61% and the “ERG response amplitudes, % of normal” value ([2]; 1.0 mg/kg SC, as restated with the morphometry) was “greater than 50%”.
With FC(F)(F)c1cccc(C2=CCN(CCc3ccc4ccccc4c3)CC2)c1 [SR-57746A, xaliproden hydrochloride] the “Maximum a- and b-wave responses, % of controls” value ([3]; 0.5 mg/kg IP, 5-day recovery) was 82%, the “Maximum a- and b-wave responses, % of normal” value ([3]; 1 mg/kg IP, 5-day recovery) was 70% and the “Protection of retinal function” value ([3]; 0.5 and 1.0 mg/kg IP, light-exposed rats) was “Significant protection of retinal function”.
O=C1CC2(CCCC2)CC(=O)N1CCCCN1CCN(c2ncccn2)CC1 [buspirone] was tested, and the ONL thickness ([1]; 1 mg/kg IP, 4-week recovery) was 28.3 μ, the “ONL thickness versus normal rats” value ([1]; 1 mg/kg IP, 4-week recovery) was “no significant difference in ONL thickness” and the “Retinal DNA levels versus vehicle” value ([4]; 0.1 mg/kg IP) was “No significant differences”. The “Retinal DNA levels versus vehicle and controls” value ([4]; 1 mg/kg IP) was “significantly higher than measured in vehicle dosed rats, but not significantly different than controls”.
For Fc1ccc(C(c2ccc(F)cc2)N2CCN(C/C=C/c3ccccc3)CC2)cc1 [flunarizine], the “Effect in preventing light-induced functional or morphological changes” value [5] was “moderately effective”.
With COCCOC(=O)C1=C(C)NC(C)=C(C(=O)OC(C)C)C1c1cccc([N+](=O)[O-])c1 (stereo not shown) [nimodipine] the “Effect in preventing light-induced functional or morphological changes” value [5] was “no effect”.
Cc1c(C)c2c(c(C)c1O)CC[C@@](C)(CCC[C@H](C)CCC[C@H](C)CCCC(C)C)O2 [α-tocopherol] was tested, and the “Effect in preventing light-induced functional or morphological changes” value [5] was “ineffective”.
